Source: the NIST ThermoML archive (doi:10.1016/j.jct.2010.09.005)
“And” between values parts separate entries of the source, which are not always exact repeats. Equal values may be shown once. Numbers after ± are expanded uncertainties.

Columns and labels:
[1] = molar enthalpy of vaporization or sublimation; conditions: 298.15 K, vacuum sublimation
[2] = Crystal, Calculated from knudsen effusion weight loss

Row | molar enthalpy ([1]; Crystal) [kcal/mol] | molar enthalpy ([1]; Liquid) [kcal/mol] | Compound | vapor or sublimation pressure ([2]; 293.25 K) | vapor or sublimation pressure ([2]; 295.17 K) | vapor or sublimation pressure ([2]; 297.09 K) | vapor or sublimation pressure ([2]; 299.21 K) | vapor or sublimation pressure ([2]; 301.16 K) | vapor or sublimation pressure ([2]; 303.08 K) | vapor or sublimation pressure ([2]; 305.19 K) | vapor or sublimation pressure ([2]; 307.16 K) | vapor or sublimation pressure ([2]; 309.09 K)
1 | 15.2 ± 0.669 | – | CC(=O)c1ccc(Cl)cc1Cl [2',4'-dichloroacetophenone] | – | – | – | – | – | – | – | – | –
2 | – | 15.8 ± 0.717 | CC(=O)c1cc(Cl)ccc1Cl [2',5'-dichloroacetophenone] | – | – | – | – | – | – | – | – | –
3 | 21.7 ± 0.765 | – | CC(=O)c1ccc(Cl)c(Cl)c1 [3',4'-dichloroacetophenone] | 0.0001703 ± 8.5e-06 kPa and 0.0001647 ± 8.3e-06 kPa and 0.0001655 ± 8.3e-06 kPa | 0.0002238 ± 1.1e-05 kPa and 0.0002145 ± 1.1e-05 kPa and 0.000213 ± 1.1e-05 kPa | 0.0002738 ± 1.4e-05 kPa and 0.0002832 ± 1.4e-05 kPa and 0.0002774 ± 1.4e-05 kPa | 0.0003484 ± 1.7e-05 kPa and 0.0003522 ± 1.8e-05 kPa and 0.0003546 ± 1.8e-05 kPa | 0.0004547 ± 2.3e-05 kPa and 0.0004516 ± 2.3e-05 kPa and 0.0004492 ± 2.3e-05 kPa | 0.0005694 ± 2.9e-05 kPa and 0.0005819 ± 2.9e-05 kPa and 0.0005785 ± 2.9e-05 kPa | 0.0007368 ± 3.7e-05 kPa and 0.0007202 ± 3.6e-05 kPa and 0.0007224 ± 3.6e-05 kPa | 0.000944 ± 4.7e-05 kPa and 0.0009302 ± 4.7e-05 kPa and 0.0009113 ± 4.6e-05 kPa | 0.001174 ± 0.00012 kPa and 0.001186 ± 0.00012 kPa and 0.001176 ± 0.00012 kPa
